In patent US20070299083A1, “6-Methoxy-8-[4-(1-(5-fluoro)-quinolin-8-yl-piperidin-4-yl)-piperazin-1-yl]-quinoline hydrochloric acid salts” (Wyeth, priority 2006, published 2007):

Assay: solubility in aqueous media
Type: physicochemical
Settings: even in the presence of surfactants

- solubility: ~0.4 µg/mL
SMILES: COc1cc(N2CCN(C3CCN(c4ccc(F)c5cccnc45)CC3)CC2)c2ncccc2c1 [free base, 6-methoxy-8-[4-(1-(5-fluoro)-quinolin-8-yl-piperidin-4-yl)-piperazin-1-yl]-quinoline]
